Results on 18 compounds are retold here after ChEMBL document CHEMBL1142531, “Discovery and biological profile of 4-(1-aryltriazol-4-yl)-tetrahydropyridines as an orally active new class of metabotropic glutamate receptor 1 antagonist” (Bioorg Med Chem, 2008).

Series [1] in a line: Octanol-water partition coefficient, log D at pH 7.4 by shake flask method. The series is classed as physicochemical.
Series [2] has as its target Metabotropic glutamate receptor 1 (Mus musculus, UniProt P97772). Put plainly: Antagonist activity at mouse mGluR1 expressed in CHO cells assessed as calcium flux by FLIPR assay. The series is classed as functional, cell-based. A general note: Calcium assays in cells follow changes in intracellular calcium, usually with a dye or a luminescent sensor.
Series [3] deals with Metabotropic glutamate receptor 1 (Homo sapiens, UniProt Q13255). Nature of the series: Antagonist activity at human mGluR1 expressed in CHO cells assessed as calcium flux by FLIPR assay. It is filed as functional, cell-based.
The target of series [4] is Metabotropic glutamate receptor 5 (Homo sapiens, UniProt P41594). Put plainly: Antagonist activity at human mGluR5 expressed in CHO cells assessed as calcium flux by FLIPR assay. It is filed as functional, cell-based.
Series [5] can be described thus: Solubility in water by ultra performance liquid chromatography. The series is classed as physicochemical.
Series [6] can be described thus: Metabolic stability in rat liver microsomes at 1 uM after 30 mins. It is filed as ADME, Microsome. Particulars: read-out: Stability. (In general: Liver microsomes are vesicles of endoplasmic reticulum, rich in cytochrome P450 enzymes.)
Series [7] is described as follows: Metabolic stability in human liver microsomes at 1 uM after 30 mins. The series is classed as ADME, Microsome. Particulars: read-out: Stability.
Series [8] addresses Metabotropic glutamate receptor 8 (Homo sapiens) (UniProt O00222). Put plainly: Activity at human mGluR8 expressed in CHO-K1 cells at 10 uM by [35S]GTPgammaS binding assay. The series is classed as functional, cell-based. Background: Binding of GTPγS marks nucleotide exchange on a G protein.
The nature of series [9]: Inhibition of AMPA receptor.
Series [10] can be described thus: Half life in rat at 1 mg/kg, iv. Particulars: in vivo. It is filed as ADME, organism-based. Also on record: dose 1 mg/kg, route intravenous.
In series [11] the test system is Mus musculus. Nature of the series: Inhibition of (S)-3,5-[…]-induced face washing behavior in mouse at 10 to 30 mg/kg, ip administered 30 mins before (S)-3,5-DHPG measured after 5 mins. The series is classed as functional, organism-based.
Series [12] is described as follows: Inhibition of kainate receptor.
Series [13] concerns the target Metabotropic glutamate receptor 4 (Homo sapiens) (UniProt Q14833). Nature of the series: Activity at human mGluR4 expressed in CHO cells at 10 uM by [35S]GTPgammaS binding assay. The series is classed as functional, cell-based.
Series [14] can be described thus: Plasma concentration in mouse at 10 mg/kg, po after 30 mins. Further details: dose 10 mg/kg, route oral. The series is classed as ADME, organism-based.
Series [15] can be described thus: Inhibition of NMDA receptor.
Series [16] has as its system Mus musculus. Nature of the series: Inhibition of (S)-3,5-[…]-induced face washing behavior in mouse at 10 to 30 mg/kg, po administered 30 mins before (S)-3,5-DHPG measured after 5 mins. It is filed as functional, organism-based.
Series [17] in a line: Metabolic stability in mouse liver microsomes at 1 uM after 30 mins. It is filed as ADME, Microsome. Particulars: read-out: Stability.
The nature of series [18]: Total plasma clearance in rat at 1 mg/kg, iv. The series is classed as ADME, organism-based. Further details: dose 1 mg/kg, route intravenous.
The target in series [19] is Metabotropic glutamate receptor 7 (Homo sapiens) (UniProt Q14831). Nature of the series: Activity at human mGluR7 expressed in CHO cells at 10 uM by [35S]GTPgammaS binding assay. The series is classed as functional, cell-based.
In series [20] the target is Metabotropic glutamate receptor 6 (Homo sapiens) (UniProt O15303). Put plainly: Activity at human mGluR6 expressed in CHO cells at 10 uM by [35S]GTPgammaS binding assay. It is filed as functional, cell-based.
Series [21] concerns Mus musculus. Put plainly: Brain concentration in mouse at 10 mg/kg, po after 30 mins. The series is classed as ADME, organism-based. Further details: dose 10 mg/kg, route oral. Particulars: in vivo, 0.5 h.
Series [22] is described as follows: Oral bioavailability in rat at 3 mg/kg. It is filed as ADME, organism-based. Particulars: in vivo.
For series [23], the target named is Metabotropic glutamate receptor 2 (Homo sapiens) (UniProt Q14416). Nature of the series: Activity at human mGluR2 expressed in CHO cells at 10 uM by [35S]GTPgammaS binding assay. It is filed as functional, cell-based.
The subject of series [24] is Mus musculus. Nature of the series: Inhibition of (S)-3,5-[…]-induced face washing behavior in mouse administered 30 mins before (S)-3,5-DHPG measured after 5 mins. The series is classed as functional, organism-based.
The subject of series [25] is Mus musculus. Put plainly: Inhibition of (S)-3,5-[…]-induced face washing behavior in mouse at 3 to 10 mg/kg, ip administered 30 mins before (S)-3,5-DHPG measured after 5 mins. The series is classed as functional, organism-based.

In brackets after ≈: the same amount, converted by molar mass. Activity calls are given as the source filed them. No cut-off for these calls is given here.

Chain of Metabotropic glutamate receptor 1 (Homo sapiens, UniProt Q13255) (Q13255 whole entry): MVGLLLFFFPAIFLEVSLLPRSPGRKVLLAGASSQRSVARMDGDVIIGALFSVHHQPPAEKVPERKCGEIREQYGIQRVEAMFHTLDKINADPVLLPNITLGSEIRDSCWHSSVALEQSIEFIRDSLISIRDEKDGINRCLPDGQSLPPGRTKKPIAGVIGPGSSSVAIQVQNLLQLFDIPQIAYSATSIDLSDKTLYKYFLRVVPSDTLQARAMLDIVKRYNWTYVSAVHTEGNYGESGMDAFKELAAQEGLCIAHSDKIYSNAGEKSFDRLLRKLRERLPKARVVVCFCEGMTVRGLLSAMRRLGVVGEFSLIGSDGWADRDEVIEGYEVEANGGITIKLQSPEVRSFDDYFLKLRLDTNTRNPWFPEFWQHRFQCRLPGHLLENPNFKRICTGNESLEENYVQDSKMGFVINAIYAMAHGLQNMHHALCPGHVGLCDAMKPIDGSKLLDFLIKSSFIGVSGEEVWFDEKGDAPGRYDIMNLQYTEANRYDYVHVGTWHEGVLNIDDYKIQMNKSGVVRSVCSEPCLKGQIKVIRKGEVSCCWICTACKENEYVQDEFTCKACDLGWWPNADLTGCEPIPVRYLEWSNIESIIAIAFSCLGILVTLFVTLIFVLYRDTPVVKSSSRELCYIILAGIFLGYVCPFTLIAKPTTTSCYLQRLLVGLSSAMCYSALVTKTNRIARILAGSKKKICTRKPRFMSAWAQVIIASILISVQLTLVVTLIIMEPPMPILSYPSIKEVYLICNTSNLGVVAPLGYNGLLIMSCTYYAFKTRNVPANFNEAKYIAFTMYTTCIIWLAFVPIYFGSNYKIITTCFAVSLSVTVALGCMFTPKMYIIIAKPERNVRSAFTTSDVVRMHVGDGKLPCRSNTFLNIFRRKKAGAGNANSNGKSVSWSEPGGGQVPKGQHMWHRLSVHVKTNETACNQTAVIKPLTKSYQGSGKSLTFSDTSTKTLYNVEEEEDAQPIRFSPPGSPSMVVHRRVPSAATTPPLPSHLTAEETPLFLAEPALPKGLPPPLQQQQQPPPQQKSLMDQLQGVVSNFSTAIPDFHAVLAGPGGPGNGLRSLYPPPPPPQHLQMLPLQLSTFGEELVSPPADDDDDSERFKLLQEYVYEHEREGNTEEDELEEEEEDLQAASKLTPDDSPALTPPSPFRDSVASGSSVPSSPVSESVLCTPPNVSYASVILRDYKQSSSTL
Chain of Metabotropic glutamate receptor 1 (Mus musculus, UniProt P97772) (P97772 whole entry): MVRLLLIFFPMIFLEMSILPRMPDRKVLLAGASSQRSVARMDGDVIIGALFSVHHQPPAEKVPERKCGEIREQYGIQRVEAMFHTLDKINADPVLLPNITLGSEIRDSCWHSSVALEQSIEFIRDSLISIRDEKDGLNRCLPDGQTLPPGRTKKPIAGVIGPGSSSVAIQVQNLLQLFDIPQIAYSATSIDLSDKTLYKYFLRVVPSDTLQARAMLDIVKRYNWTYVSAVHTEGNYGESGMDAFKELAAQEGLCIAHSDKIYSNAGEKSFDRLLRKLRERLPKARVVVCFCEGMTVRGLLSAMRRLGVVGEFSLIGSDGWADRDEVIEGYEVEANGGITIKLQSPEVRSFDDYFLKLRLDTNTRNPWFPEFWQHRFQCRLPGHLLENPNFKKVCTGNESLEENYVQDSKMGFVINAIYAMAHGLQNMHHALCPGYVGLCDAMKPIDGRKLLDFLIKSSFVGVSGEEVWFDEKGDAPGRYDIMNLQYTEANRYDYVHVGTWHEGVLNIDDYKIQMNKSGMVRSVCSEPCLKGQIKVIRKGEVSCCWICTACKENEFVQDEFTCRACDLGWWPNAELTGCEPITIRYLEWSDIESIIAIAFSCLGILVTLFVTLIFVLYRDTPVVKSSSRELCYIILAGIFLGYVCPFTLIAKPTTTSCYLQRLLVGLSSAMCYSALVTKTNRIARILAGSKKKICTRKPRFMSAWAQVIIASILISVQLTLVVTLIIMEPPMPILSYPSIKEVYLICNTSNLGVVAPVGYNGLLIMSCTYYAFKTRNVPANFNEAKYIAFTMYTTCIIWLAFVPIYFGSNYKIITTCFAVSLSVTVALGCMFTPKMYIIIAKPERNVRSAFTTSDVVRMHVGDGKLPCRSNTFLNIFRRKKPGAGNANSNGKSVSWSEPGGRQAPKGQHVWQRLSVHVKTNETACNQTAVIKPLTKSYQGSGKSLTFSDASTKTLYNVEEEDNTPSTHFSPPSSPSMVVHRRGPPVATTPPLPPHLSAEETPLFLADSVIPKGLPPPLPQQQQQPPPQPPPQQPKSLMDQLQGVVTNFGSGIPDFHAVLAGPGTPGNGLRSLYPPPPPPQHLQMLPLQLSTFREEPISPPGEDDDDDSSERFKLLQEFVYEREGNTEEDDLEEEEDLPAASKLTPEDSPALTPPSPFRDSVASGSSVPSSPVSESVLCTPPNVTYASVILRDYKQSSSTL
Chain of Metabotropic glutamate receptor 5 (P41594 whole entry): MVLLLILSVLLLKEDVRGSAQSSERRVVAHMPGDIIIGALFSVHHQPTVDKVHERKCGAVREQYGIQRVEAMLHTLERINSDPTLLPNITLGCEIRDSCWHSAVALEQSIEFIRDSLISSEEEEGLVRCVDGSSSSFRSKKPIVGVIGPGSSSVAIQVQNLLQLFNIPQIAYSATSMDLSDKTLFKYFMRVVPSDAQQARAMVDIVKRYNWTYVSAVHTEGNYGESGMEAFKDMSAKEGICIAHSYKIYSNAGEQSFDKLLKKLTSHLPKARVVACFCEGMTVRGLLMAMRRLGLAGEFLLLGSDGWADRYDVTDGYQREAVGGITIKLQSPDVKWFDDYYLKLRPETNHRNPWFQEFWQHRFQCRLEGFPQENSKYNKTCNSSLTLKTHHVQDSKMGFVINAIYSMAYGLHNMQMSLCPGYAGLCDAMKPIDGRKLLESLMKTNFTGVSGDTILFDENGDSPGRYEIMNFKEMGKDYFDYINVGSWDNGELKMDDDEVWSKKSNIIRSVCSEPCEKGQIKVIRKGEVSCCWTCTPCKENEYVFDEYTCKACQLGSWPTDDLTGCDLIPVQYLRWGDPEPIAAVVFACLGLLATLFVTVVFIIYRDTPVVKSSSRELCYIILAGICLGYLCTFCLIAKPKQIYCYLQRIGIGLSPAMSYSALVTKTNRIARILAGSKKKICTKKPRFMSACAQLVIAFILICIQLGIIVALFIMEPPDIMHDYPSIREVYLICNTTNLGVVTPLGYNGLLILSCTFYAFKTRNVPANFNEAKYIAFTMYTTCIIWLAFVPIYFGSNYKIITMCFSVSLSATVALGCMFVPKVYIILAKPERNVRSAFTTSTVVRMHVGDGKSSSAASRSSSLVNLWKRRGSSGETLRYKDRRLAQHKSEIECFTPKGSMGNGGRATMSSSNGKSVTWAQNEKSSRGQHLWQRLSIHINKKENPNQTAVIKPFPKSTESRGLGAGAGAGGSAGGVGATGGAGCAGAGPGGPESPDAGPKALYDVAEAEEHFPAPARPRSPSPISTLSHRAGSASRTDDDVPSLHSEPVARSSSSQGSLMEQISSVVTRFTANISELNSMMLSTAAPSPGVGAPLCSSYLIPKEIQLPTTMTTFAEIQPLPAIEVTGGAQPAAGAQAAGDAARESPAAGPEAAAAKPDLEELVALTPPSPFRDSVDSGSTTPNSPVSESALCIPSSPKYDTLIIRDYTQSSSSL
Chain of Metabotropic glutamate receptor 8 (Homo sapiens) (O00222 whole entry): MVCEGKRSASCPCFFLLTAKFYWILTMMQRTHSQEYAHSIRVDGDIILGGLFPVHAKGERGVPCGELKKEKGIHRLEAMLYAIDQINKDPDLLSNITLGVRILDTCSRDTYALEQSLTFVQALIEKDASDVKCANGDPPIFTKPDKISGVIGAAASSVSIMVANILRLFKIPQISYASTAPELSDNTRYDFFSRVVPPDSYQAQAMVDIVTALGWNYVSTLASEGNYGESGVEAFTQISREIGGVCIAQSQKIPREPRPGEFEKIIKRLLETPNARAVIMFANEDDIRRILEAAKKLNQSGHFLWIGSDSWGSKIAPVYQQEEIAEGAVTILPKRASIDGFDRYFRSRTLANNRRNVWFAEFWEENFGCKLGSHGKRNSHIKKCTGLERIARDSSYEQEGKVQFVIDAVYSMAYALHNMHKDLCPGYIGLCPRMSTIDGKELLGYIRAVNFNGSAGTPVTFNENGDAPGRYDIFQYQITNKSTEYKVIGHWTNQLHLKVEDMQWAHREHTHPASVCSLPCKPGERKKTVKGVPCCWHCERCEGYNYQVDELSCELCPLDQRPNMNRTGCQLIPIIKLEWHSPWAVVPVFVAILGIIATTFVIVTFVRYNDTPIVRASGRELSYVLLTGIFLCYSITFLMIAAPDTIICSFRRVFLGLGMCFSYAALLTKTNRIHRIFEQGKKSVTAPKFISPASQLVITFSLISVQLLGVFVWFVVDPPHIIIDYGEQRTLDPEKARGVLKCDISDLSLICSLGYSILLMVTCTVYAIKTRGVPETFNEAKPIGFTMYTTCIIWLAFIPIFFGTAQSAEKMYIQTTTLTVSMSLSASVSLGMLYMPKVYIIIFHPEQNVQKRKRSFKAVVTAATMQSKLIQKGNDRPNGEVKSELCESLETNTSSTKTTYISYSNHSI

In turn, `CC(C)(C)OC(=O)N1CC=C(c2cn(-c3cccnc3)nn2)CC1` gave a pH-dependent lipophilicity (logD) in series [1] of 3. The values for the IC50 in series [2], in series [3] and in [4] were 180 nM, 55 nM and 8300 nM, respectively.
`CC(C)OC(=O)N1CC=C(c2cn(-c3cccnc3F)nn2)CC1` had a logD in [1] of 2.8. The IC50 in [2] is 180 nM; in series [3], 39 nM; in series [4], 3900 nM.
Compound `CC(C)(C)OC(=O)N1CC=C(c2cn(-c3ccccc3)nn2)CC1` registered a logD in series [1] greater than 4. Also, the solubility in series [5] worked out at 2.4 µM (≈ 0.783 µg/mL). Besides, the IC50 stood at 24 nM in series [2], 9.8 nM in [3] and 820 nM in [4]. Besides, the remaining at 0.5 h, 1 µM in series [6] was determined as 16%; in series [7], 57%.
`CC(C)(C)CC(=O)N1CC=C(c2cn(-c3ccccc3F)nn2)CC1`: the IC50 in [2] was 160 nM; in series [3] it was 120 nM; in series [4], greater than 10000 nM.
`Cc1ccccc1-n1cc(C2=CCN(C(=O)OC(C)(C)C)CC2)nn1` displayed a logD in [1] greater than 4. The results for the IC50 in series [2], in series [3] and in series [4] were 58 nM, 11 nM and 880 nM, respectively.
In turn, `CC(C)(C)OC(=O)N1CC=C(c2cn(-c3ccccc3F)nn2)CC1` returned a logD in series [1] greater than 4. The IC50 in series [2] was found to be 16 nM; in [3] it was 6.3 nM; in series [4], 1000 nM.
`Cc1c(C2=CCN(C(=O)OC(C)C)CC2)nnn1-c1cccnc1F` returned a logD in series [1] of 2.8. The IC50 in [2] stood at 3.3 nM; in series [3], 7.2 nM; in [4], 40 nM.
For the compound `Cc1c(C2=CCN(C(=O)N(C)C(C)C)CC2)nnn1-c1cccnc1F`, the logD in series [1] came to 2.1. The compound also gave a solubility in series [5] greater than 170 µM. Further, the result in series [8], in series [13], in [19], in [20] and in series [23] was inactive. The IC50 was greater than 10000 nM in series [9]; 3.1 nM in series [2]; greater than 10000 nM in [12]; greater than 10000 nM in [15]; 6200 nM in series [4]. Also, the half-life in series [10] is 12 min. Further, the outcome in the series with Mus musculus [11] and with Mus musculus [16] was Active. For the same compound, the remaining at 0.5 h, 1 µM in series [6] came out at 61%; in [7], 85%; in [17], 27%. In addition, the concentration at 0.5 h in [14] turned out to be 210 nM. This compound gave a clearance in series [18] of 57 mL/min/kg. In the series on Mus musculus [21], this compound showed a Drug uptake of 0.17 nmol/g. Further, the bioavailability in series [22] was 18%.
Regarding `N[C@H](C(=O)O)c1ccc(C(=O)O)cc1`, in the series on Mus musculus [24], the result was Active.
In series [1], `CC(C)(C)OC(=O)N1CC=C(c2cn(-c3cccc(F)c3)nn2)CC1` displayed a logD greater than 4. Besides, the IC50 was 39 nM in series [2], 18 nM in series [3] and 1100 nM in series [4].
In series [1], `Cc1c(C2=CCN(C(=O)OC(C)(C)C)CC2)nnn1-c1cccnc1F` had a logD of 2.9. The result with Mus musculus [25] was Active. This compound also returned a solubility in series [5] of 155 µM (≈ 55.7 µg/mL). Further, the IC50 in [2] worked out at 1.5 nM; in series [3], 7 nM; in [4] it was 170 nM. Moreover, the remaining at 0.5 h, 1 µM in series [6] is 70%; in [7], 90%; in [17], 2%.
Regarding `COc1ccccc1-n1cc(C2=CCN(C(=O)OC(C)(C)C)CC2)nn1`, the values for the IC50 in [2], in [3] and in series [4] were 1600 nM, 590 nM and 4000 nM, respectively.
With `NC1(C(=O)O)CCc2cc(C(=O)O)ccc21` (racemic), the result in the series on Mus musculus [24] was Active.
Consider `CC(C)(C)OC(=O)N1CC=C(c2cn(-c3ccccn3)nn2)CC1`, for which, in [1], the logD is greater than 4. The IC50 in series [2] worked out at 150 nM; in series [3], 49 nM; in series [4], 8700 nM.
In the case of `CC(C)(C)OC(=O)N1CC=C(c2cn(-c3cccnc3F)nn2)CC1`, the log distribution coefficient (logD) in series [1] is 3.1. The IC50 came to 12 nM in series [2], 2.6 nM in [3] and 4300 nM in series [4].
For `CC(C)(C)OC(=O)N1CC=C(c2cn(-c3ccncc3)nn2)CC1`, the IC50 was 1000 nM in [2], 220 nM in series [3] and greater than 10000 nM in [4].
In series [1], `CC(C)(C)OC(=O)N1CC=C(c2cn(-c3ccc(F)cc3)nn2)CC1` showed a logD greater than 4. Further, the IC50 in series [2] is 31 nM; in [3] it was 16 nM; in series [4], 1100 nM.
In series [1], `CC(C)(C)NC(=O)N1CC=C(c2cn(-c3ccccc3F)nn2)CC1` displayed a logD of 3.2. The IC50 in series [2] is 290 nM; in series [3], 57 nM; in series [4], 8600 nM.

In general, logD refers to the decadic logarithm of the distribution of all forms, ionised or not, between an organic phase and buffer at a given pH. Lower therefore signals a more hydrophilic compound. One may read the IC50 as the concentration at which inhibition is half-maximal. By solubility is commonly meant the dissolved amount per volume that the medium holds. High values mean much dissolved substance, low ones little dissolved substance. In general, half-life refers to how long it takes for the measured level to halve. The low end stands for fast loss, the high end for slow loss. Usually clearance stands for the volume of plasma or blood freed of the substance per unit of time. Read a high clearance as a high capacity for elimination. Broadly, the bioavailability is the share of a dose that reaches the circulation, judged against a reference dose that is usually intravenous. Low values mean little systemic uptake, high ones much systemic uptake.
